Results on 21 compounds are retold here after ChEMBL document CHEMBL1127696, “Non-peptide renin inhibitors containing 2-(((3-phenylpropyl)phosphoryl)oxy)alkanoic acid moieties as P2-P3 replacements” (J Med Chem, 1994).

pIC50: −log10 of the molar value.

A word on the pIC50: it is the negative decadic logarithm of the IC50, by convention in mol/L. A lower pIC50 goes with a high IC50.

The target in one test is T1, Renin (Homo sapiens, UniProt P00797).
T1 sequence (P00797 whole entry): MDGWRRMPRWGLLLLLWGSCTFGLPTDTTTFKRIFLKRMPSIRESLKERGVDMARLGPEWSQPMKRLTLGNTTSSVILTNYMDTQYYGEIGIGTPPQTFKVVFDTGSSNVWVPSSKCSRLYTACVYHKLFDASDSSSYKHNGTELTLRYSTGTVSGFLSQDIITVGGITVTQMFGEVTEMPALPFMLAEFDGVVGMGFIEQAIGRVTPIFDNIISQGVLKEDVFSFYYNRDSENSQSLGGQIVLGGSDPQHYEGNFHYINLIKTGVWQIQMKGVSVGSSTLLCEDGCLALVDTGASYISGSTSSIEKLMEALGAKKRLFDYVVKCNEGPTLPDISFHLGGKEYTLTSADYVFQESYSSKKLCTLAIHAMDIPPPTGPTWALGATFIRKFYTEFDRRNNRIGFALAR
In words: In vitro inhibition of human renin.

Another test addresses T2, Cathepsin D (Bos taurus, UniProt P80209).
T2 sequence (P80209 whole entry): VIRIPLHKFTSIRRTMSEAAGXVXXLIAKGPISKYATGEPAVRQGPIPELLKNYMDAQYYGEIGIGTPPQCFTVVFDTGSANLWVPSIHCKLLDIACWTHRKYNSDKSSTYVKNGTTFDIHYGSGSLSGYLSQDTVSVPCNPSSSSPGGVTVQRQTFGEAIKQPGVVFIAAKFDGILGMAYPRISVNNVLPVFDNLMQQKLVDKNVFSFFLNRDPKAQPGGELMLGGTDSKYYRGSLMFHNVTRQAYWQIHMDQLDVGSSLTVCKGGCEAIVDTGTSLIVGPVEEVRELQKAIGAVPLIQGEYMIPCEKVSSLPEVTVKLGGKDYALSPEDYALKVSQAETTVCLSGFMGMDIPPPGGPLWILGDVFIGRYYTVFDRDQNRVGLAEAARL
Briefly: In vitro inhibition of bovine cathepsin D.

A further test addresses Pepsin A (Sus scrofa, UniProt P00791). In words: In vitro inhibition of porcine pepsin.

Sequence of Pepsin A (P00791 whole entry): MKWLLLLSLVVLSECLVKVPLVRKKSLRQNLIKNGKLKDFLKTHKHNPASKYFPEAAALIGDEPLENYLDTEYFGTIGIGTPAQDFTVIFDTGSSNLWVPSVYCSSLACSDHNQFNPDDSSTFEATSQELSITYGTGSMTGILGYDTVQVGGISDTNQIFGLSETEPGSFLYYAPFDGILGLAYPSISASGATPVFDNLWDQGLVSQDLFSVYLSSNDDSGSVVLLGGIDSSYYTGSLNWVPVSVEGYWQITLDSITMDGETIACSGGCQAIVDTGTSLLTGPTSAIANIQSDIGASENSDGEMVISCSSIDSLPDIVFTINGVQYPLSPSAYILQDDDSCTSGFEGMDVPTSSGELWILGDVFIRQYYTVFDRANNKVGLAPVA

As for `CCCCNC(=O)[C@H](C)C[C@H](O)[C@H](CC1CCCCC1)NC(=O)[C@@H](C)OP(=O)(O)CCCc1ccccc1`, the pIC50 against Renin is 7.80; against Cathepsin D it was < 5.00; at Pepsin A, < 5.00.

As to `CCCCNC(=O)[C@H](C)C[C@H](O)[C@H](CC1CCCCC1)NC(=O)[C@@H](CCC)OP(=O)(O)CCCc1ccccc1`, the values for the negative-log IC50 (pIC50) on Renin, against Cathepsin D and against Pepsin A were 8.42, < 5.00 and < 5.00, respectively.

Regarding `CCCC[C@H](OP(=O)(O)CCCc1ccccc1)C(=O)N[C@@H](CC1CCCCC1)[C@@H](O)C(O)CC(C)C` (stereo partly drawn), the figures for the pIC50 on Renin, against Cathepsin D and against Pepsin A were 7.60, < 5.00 and < 5.00, respectively.

As for `CCCCNC(=O)[C@@H](C)C[C@@H](O)[C@@H](CC1CCCCC1)NC(=O)[C@H](CCCC)OP(=O)(O)CCCCc1ccccc1`, the results for the pIC50 against Renin, on Cathepsin D and on Pepsin A were 6.44, < 5.00 and < 5.00, respectively.

In the case of `CCCCNC(=O)[C@H](C)C[C@H](O)[C@H](CC1CCCCC1)NC(=O)[C@H](CCCC)OP(=O)(O)CCCc1ccccc1`, the pIC50 on Renin was 8.60; against Cathepsin D it was < 5.00; against Pepsin A, < 5.00.

On to `CCCCNC(=O)[C@H](C)C[C@H](O)[C@H](CC1CCCCC1)NC(=O)[C@H](C)OP(=O)(O)CCCc1ccccc1`, for which the figures for the pIC50 against Renin, against Cathepsin D and against Pepsin A were 7.76, < 5.00 and < 5.00, respectively.

For `CCCC[C@H](OP(=O)(O)CCCc1ccccc1)C(=O)N[C@@H](CC1CCCCC1)[C@@H](O)CCSc1ccccn1`, the pIC50 on Renin was 6.94; against Cathepsin D, < 5.00; at Pepsin A, < 5.00.

For `CCCC[C@H](OP(=O)(O)CCCc1ccccc1)C(=O)N[C@@H](CC1CCCCC1)[C@@H](O)C(=O)OC(C)C`, the pIC50 against Renin is 7.26; on Cathepsin D, < 5.00; against Pepsin A it was < 5.00.

Consider `CCCC[C@H](OP(=O)(O)CCCc1ccccc1)C(=O)N[C@@H](CC1CCCCC1)[C@@H](O)CC(=O)N[C@@H](C(=O)NCc1cnc(C)nc1N)[C@@H](C)CC`, for which the pIC50 against Renin is 7.24; on Cathepsin D it was < 5.00; at Pepsin A, < 5.00.

For `CCCCNC(=O)[C@@H](C)C[C@@H](O)[C@@H](CC1CCCCC1)NC(=O)[C@H](CCCC)OP(=O)(O)CCc1ccccc1`, the pIC50 against Renin was 7.34; at Cathepsin D it was < 5.00; at Pepsin A, < 5.00.

Turning to `CCCCNC(=O)[C@@H](C)C[C@@H](O)[C@@H](CC1CCCCC1)NC(=O)[C@H](CCCC)OP(=O)(O)CCCc1ccccc1`, the pIC50 at Renin is 8.32; on Cathepsin D it was < 5.00; against Pepsin A it was < 5.00.

As for `CCCCNC(=O)[C@H](C)C[C@H](O)[C@H](CC1CCCCC1)NC(=O)[C@H](CCC)OP(=O)(O)CCCc1ccccc1`, the pIC50 was 8.38 against Renin, < 5.00 at Cathepsin D and < 5.00 against Pepsin A.

`CCCCNC(=O)[C@@H](C[C@H](O)[C@H](CC(C)C)NC(=O)[C@H](CCCC)OP(=O)(O)CCCc1ccccc1)C(C)C`: the figures for the pIC50 on Renin, against Cathepsin D and on Pepsin A were 8.55, 5.64 and 5.00, respectively.

As for `CCCCNC(=O)[C@H](C)C[C@H](O)[C@H](CC1CCCCC1)NC(=O)[C@@H](CCCC)OP(=O)(CCCc1ccccc1)OCC` (stereo in doubt; 7i), the pIC50 is 7.65 against Renin, < 5.00 on Cathepsin D and < 5.00 against Pepsin A.

On to `CCCCNC(=O)[C@H](C)C[C@H](O)[C@H](CC1CCCCC1)NC(=O)[C@@H](CCCC)OP(=O)(CCCc1ccccc1)OCC` (stereo in doubt; 7j), for which the pIC50 against Renin was 6.46; against Cathepsin D, < 5.00; against Pepsin A, < 5.00.

Take `CCCCNC(=O)[C@H](C)C[C@H](O)[C@H](CC1CCCCC1)NC(=O)[C@H](CCCC)OP(=O)(CCCc1ccccc1)OCC` (stereo in doubt; 7k): the pIC50 against Renin was 7.82; at Cathepsin D, 5.55; on Pepsin A it was < 5.00.

`CCCCNC(=O)[C@H](C)C[C@H](O)[C@H](CC1CCCCC1)NC(=O)[C@H](CCCC)OP(=O)(CCCc1ccccc1)OCC` (stereo in doubt; 7l): the pIC50 was 6.67 against Renin, < 5.00 against Cathepsin D and < 5.00 on Pepsin A.

For `CCC[C@@H](OP(=O)(CCCc1ccccc1)OCC)C(=O)N[C@@H](CC1CCCCC1)[C@@H](O)[C@@H](O)CC(C)C` (stereo in doubt; 8f), the pIC50 on Renin is 7.75; against Cathepsin D, 5.67; against Pepsin A, < 5.00.

Take `CCC[C@@H](OP(=O)(CCCc1ccccc1)OCC)C(=O)N[C@@H](CC1CCCCC1)[C@@H](O)[C@@H](O)CC(C)C` (stereo in doubt; 8g): the pIC50 against Renin is 6.89; on Cathepsin D, < 5.00; against Pepsin A it was < 5.00.

With `CCC[C@@H](OP(=O)(CCCc1ccccc1)OCC)C(=O)N[C@@H](CC1CCCCC1)[C@@H](O)[C@@H](O)C1CC1` (stereo in doubt; 8h), the pIC50 against Renin was 7.70; against Cathepsin D, 5.38; on Pepsin A, < 5.00.

For `CCC[C@@H](OP(=O)(CCCc1ccccc1)OCC)C(=O)N[C@@H](CC1CCCCC1)[C@@H](O)[C@@H](O)C1CC1` (stereo in doubt; 8i), the pIC50 on Renin is 6.81; against Cathepsin D it was < 5.00; at Pepsin A it was < 5.00.
